Reference: patent US6143493A, “HCMV-specific peptides, agents therefor and the use thereof” (Dade Behring Marburg GmbH, priority 1991, dated 2000)

Experiments:
CMV IgG-positive sera = test: ELISA on peptide-coated microtiter plates with HCMV-positive human sera (localization of epitopes); assay type: binding; conditions: plates coated with 2.5 μg peptide per ml, serum 1:2; for Reactivity (individual reactivities of the synthetic pXP1 segments with the assayed group of CMV IgG-positive sera): Table 2; for Reactivity (individual reactivities of particularly reactive peptides with the assayed group of CMV IgG-positive sera): Table 3
Description: A microtiter plate with 96 wells was coated with a synthesized peptide. To do this, a solution of 2.5 μg of peptide per ml of carbonate buffer was made up and introduced in 100 μl portions into the wells for the coating. The peptides were adsorbed onto the surfaces at 4° C. overnight and, after removal of the peptide solution, the wells were washed several times with washing buffer (50 mM Tris, pH 7.2, 10 mM EDTA, 0.2% Tween 20). Then individual human serum samples in a 1:2 dilution were introduced and incubated at 37° C. for 1 hour. After another washing step, the conjugate antibody specific for human IgG antibodies or human IgM antibodies and labeled with peroxidase was added and the mixture was incubated at room temperature for 0.5 hour. The reaction was subsequently stopped by adding 0.5 M sulfuric acid and extinction of the individual samples was measured at a wavelength of 450/650 nm in a photometer.
To test the immunogenicity, peptides of various length from the complete amino-acid sequence region from 718 to 880 of the HCMV protein pp150 (Tab. 2 and 3) were synthesized as described in Example 1. Subsequently, as in Example 2, the microtiter plates were coated with the synthesized peptides, and the immunological reactivity was assayed. […] The three immunologically reactive peptides have the following sequences: […]

[1] = system: monoclonal antibody 87-55/02; test: Reaction of monoclonal antibody 87-55/02 with peptide-coated ELISA plate; assay type: binding; conditions: immunoblot and ELISA reactivity
Source text: It was concluded from the method for selecting the monoclonal antibody that the identified epitope must have a very important structure which is not even destroyed by denaturation of the complete protein. This monoclonal antibody correspondingly reacts both with the synthesized peptide 2.7 (SEQ ID NO:26) and with the recombinant protein XP1 (SEQ ID NO:33) and the pp150 protein of HCMV.

Row | Molecule | Reactivity (individual reactivities of the synthetic pXP1 segments with the assayed group of CMV IgG-positive sera) (CMV IgG-positive sera) | Reactivity (individual reactivities of particularly reactive peptides with the assayed group of CMV IgG-positive sera) (CMV IgG-positive sera) | reaction with monoclonal antibody 87-55/02 [1]
1 | ala ser arg asp ala ala asp glu val trp ala leu arg asp gln thr ala (ASRDAADEVWALRDQTA) [Peptide 3.2] | 80% | 80% | 
2 | phe glu gln pro thr leu thr phe gly ala gly val asn val pro ala gly ala gly ala ala ile leu thr pro thr pro val asn pro ser thr ala pro ala pro ala (FEQPTLTFGAGVNVPAGAGAAILTPTPVNPSTAPAPA) [Peptide 1.4] |  | 90% | 
3 | arg ala trp ala leu lys asn pro his leu ala tyr asn pro phe (RAWALKNPHLAYNPF) [Peptide 2.10] | 80% | 80% | 
4 | ala tyr lys phe glu gln pro thr leu thr phe gly ala gly val asn val pro ala gly ala gly ala ala ile leu thr pro thr pro val asn pro ser thr ala pro ala pro ala pro (AYKFGQPTLTFGAGVNVPAGAGAAILTPTPVNPSTAPAPAP) [Peptide 1.13] |  | 90% | 
5 | pro ala gly ala gly ala ala ile leu thr pro thr pro val asn pro ser thr ala pro ala pro ala pro thr pro thr phe ala gly thr (PAGAGAAILTPTPVNPSTAPAPAPTPTFAGT) [Peptide 1.10] |  | 80% | 
6 | pro arg ala ala val thr gln thr ala ser arg asp ala ala (PRAAVTQTASRDAA) [Peptide 3.1] | 60% | 60% | 
7 | XP1: recombinant protein section, amino acid 718-880 of HCMV protein pp150 (protein) DPRFTDTLVDITDTETSAKPPVTTAYKFEQPTLTFGAGVNVPAGAGAAILTPTPVNPSTAPAPAPTPTFAGTQTPVNGNSPWAPTAPLPGDMNPANWPRERAWALKNPHLAYNPFRMPTTSTASQNTVSTTPRRPSTPRAAVTQTASRDAADEVWALRDQTA |  |  | reacts
8 | pp150: HCMV protein pp150 (protein, UniProt P08318 1-1048, looked up) Large structural …: MSLQFIGLQRRDVVALVNFLRHLTQKPDVDLEAHPKILKKCGEKRLHRRTVLFNELMLWLGYYRELRFHNPDLSSVLEEFEVRCVAVARRGYTYPFGDRGKARDHLAVLDRTEFDTDVRHDAEIVERALVSAVILAKMSVRETLVTAIGQTEPIAFVHLKDTEVQRIEENLEGVRRNMFCVKPLDLNLDRHANTALVNAVNKLVYTGRLIMNVRRSWEELERKCLARIQERCKLLVKELRMCLSFDSNYCRNILKHAVENGDSADTLLELLIEDFDIYVDSFPQSAHTFLGARSPSLEFDDDANLLSLGGGSAFSSVPKKHVPTQPLDGWSWIASPWKGHKPFRFEAHGSLAPAAEAHAARSAAVGYYDEEEKRRERQKRVDDEVVQREKQQLKAWEERQQNLQQRQQQPPPPARKPSASRRLFGSSADEDDDDDDDEKNIFTPIKKPGTSGKGAASGGGVSSIFSGLLSSGSQKPTSGPLNIPQQQQRHAAFSLVSPQVTKASPGRVRRDSAWDVRPLTETRGDLFSGDEDSDSSDGYPPNRQDPRFTDTLVDITDTETSAKPPVTTAYKFEQPTLTFGAGVNVPAGAGAAILTPTPVNPSTAPAPAPTPTFAGTQTPVNGNSPWAPTAPLPGDMNPANWPRERAWALKNPHLAYNPFRMPTTSTASQNTVSTTPRRPSTPRAAVTQTASRDAADEVWALRDQTAESPVEDSEEEDDDSSDTGSVVSLGHTTPSSDYNNDVISPPSQTPEQSTPSRIRKAKLSSPMTTTSTSQKPVLGKRVATPHASARAQTVTSTPVQGRLEKQVSGTPSTVPATLLQPQPASSKTTSSRNVTSGAGTSSASSARQPSASASVLSPTEDDVVSPATSPLSMLSSASPSPAKSAPPSPVKGRGSRVGVPSLKPTLGGKAVVGRPPSVPVSGSAPGRLSGSSRAASTTPTYPAVTTVYPPSSTAKSSVSNAPPVASPSILKPGASAALQSRRSTGTAAVGSPVKSTTGMKTVAFDLSSPQKSGTGPQPGSAGMGGAKTPSDAVQNILQKIEKIKNTEE |  |  | reacts
